Laboratory results from patent publication US4160829A, “Antibacterial 1,2,4-oxadiazolylacetamido cephalosporins” (Gist-Brocades N.V., priority 1972, dated 1979).
Converted amounts (≈) assume the structure as drawn. Like-named read-outs stand apart in the source and are kept apart here.

Legend:
[1] = tested on: Staph.aureus A 2001; test: agar serial dilution test; assay type: cell-based, Staphylococcus aureus; conditions: Staphylococcus aureus, A2001, 24 h, agar serial dilution, 24 hours, 37° C.; read-out: minimal inhibitory concentration (MIC)
[2] = tested on: Shig.equir. T 3; test: agar serial dilution test; assay type: cell-based; conditions: 24 h, 37° C., read-out: minimal inhibitory concentration (MIC)
[3] = tested on: Prot.mirab. L 93; test: agar serial dilution test; assay type: cell-based, Proteus mirabilis; conditions: Proteus mirabilis
[4] = tested on: Salm.typh. R 127; test: agar serial dilution test; assay type: cell-based; conditions: 24 h, 37° C., read-out: minimal inhibitory concentration (MIC)
[5] = tested on: Pseud.aerug. Wyeth A 1058; test: agar serial dilution test; assay type: cell-based; conditions: agar serial dilution, 24 hours, 37° C.; read-out: minimal inhibitory concentration (MIC)
[6] = tested on: Past.multo. A 723; test: agar serial dilution test; assay type: cell-based, Pasteurella multocida; conditions: Pasteurella multocida; agar serial dilution, 24 hours, 37° C.; read-out: minimal inhibitory concentration (MIC)
[7] = tested on: Kleb.pneum. A 809; test: agar serial dilution test; assay type: cell-based, Klebsiella pneumoniae; conditions: Klebsiella pneumoniae; agar serial dilution, 24 hours, 37° C.; read-out: minimal inhibitory concentration (MIC)
[8] = tested on: Esch.coli U 20; test: agar serial dilution test; assay type: cell-based, Escherichia coli; conditions: Escherichia coli, U20; agar serial dilution, 24 hours, 37° C.; read-out: minimal inhibitory concentration (MIC)
[9] = tested on: Dipl.pneum. L 54; test: agar serial dilution test; assay type: cell-based, Diplococcus pneumoniae; conditions: Streptococcus pneumoniae; agar serial dilution, 24 hours, 37° C.; read-out: minimal inhibitory concentration (MIC)
[10] = tested on: Staph.aureus A 2000; test: agar serial dilution test; assay type: cell-based, Staphylococcus aureus; conditions: Staphylococcus aureus, A2000, 24 h, agar serial dilution, 24 hours, 37° C.; read-out: minimal inhibitory concentration (MIC)
[11] = tested on: Bac.Subt.ATCC 6633; test: agar serial dilution test; assay type: cell-based, Bacillus subtilis; conditions: Bacillus subtilis, ATCC6633, 24 h, agar serial dilution, 24 hours, 37° C.; read-out: minimal inhibitory concentration (MIC)
[12] = tested on: Pseud.aerug. 2396; test: agar serial dilution test; assay type: cell-based; conditions: agar serial dilution, 24 hours, 37° C.; read-out: minimal inhibitory concentration (MIC)
[13] = tested on: Staph.aureus A 321; test: agar serial dilution test; assay type: cell-based, Staphylococcus aureus; conditions: Staphylococcus aureus, A321, 24 h, agar serial dilution, 24 hours, 37° C.; read-out: minimal inhibitory concentration (MIC)
[14] = tested on: Prot.morg. 2241; test: agar serial dilution test; assay type: cell-based; conditions: 24 h, agar serial dilution, 24 hours, 37° C.; read-out: minimal inhibitory concentration (MIC)
[15] = tested on: Bruc.melit. A 488; test: microbe, parasite or virus in culture; assay type: cell-based; conditions: Brucella melitensis, 24 h, read-out: minimal inhibitory concentration (MIC)
[16] = tested on: Prot.mirab. A 1200; test: agar serial dilution test; assay type: cell-based, Proteus mirabilis; conditions: Proteus mirabilis, 24 h, agar serial dilution, 24 hours, 37° C.; read-out: minimal inhibitory concentration (MIC)
[17] = tested on: Prot.rettg. A 821; test: agar serial dilution test; assay type: cell-based, Proteus rettgeri; conditions: Providencia rettgeri, 24 h, read-out: minimal inhibitory concentration (MIC)
[18] = tested on: Prot.mirab. H 3; test: agar serial dilution test; assay type: cell-based, Proteus mirabilis; conditions: Proteus mirabilis
[19] = tested on: Salm.dubl. P 43; test: agar serial dilution test; assay type: cell-based, Salmonella dublin; conditions: Salmonella enterica, read-out: minimal inhibitory concentration (MIC)
[20] = tested on: Staph.aureus A 355; test: agar serial dilution test; conditions: Staphylococcus aureus, A355, 24 h, read-out: minimal inhibitory concentration (MIC), agar serial dilution, 24 hours, 37° C.; penicillinase-producing strain
[21] = tested on: Strep. faec. L 80; test: agar serial dilution test; assay type: cell-based, Streptococcus faecalis; conditions: Enterococcus faecalis; agar serial dilution, 24 hours, 37° C.; read-out: minimal inhibitory concentration (MIC)
[22] = tested on: Strep.haem. A 266; test: agar serial dilution test; assay type: cell-based, Streptococcus haemolyticus; conditions: Streptococcus; agar serial dilution, 24 hours, 37° C.; read-out: minimal inhibitory concentration (MIC)
[23] = tested on: Haem.infl. A 1030; test: micro serial dilution test; assay type: cell-based; conditions: 18 h, micro serial dilution (in brackets), about 18 hours, 30° C. or 37° C.; read-out: minimal inhibitory concentration (MIC)
[24] = tested on: Pseud.aerug. H 10; test: agar serial dilution test; assay type: cell-based; conditions: agar serial dilution, 24 hours, 37° C.; read-out: minimal inhibitory concentration (MIC)
[25] = tested on: Staph.aureus A 2000; test: micro serial dilution test; assay type: cell-based, Staphylococcus aureus; conditions: Staphylococcus aureus, A2000, 18 h, micro serial dilution (in brackets), about 18 hours, 30° C. or 37° C.; read-out: minimal inhibitory concentration (MIC)
[26] = tested on: Staph.aureus A 2001; test: micro serial dilution test; assay type: cell-based, Staphylococcus aureus; conditions: Staphylococcus aureus, A2001, 18 h, micro serial dilution (in brackets), about 18 hours, 30° C. or 37° C.; read-out: minimal inhibitory concentration (MIC)
[27] = tested on: Staph.aureus A 355; test: micro serial dilution test; assay type: cell-based, Staphylococcus aureus; conditions: Staphylococcus aureus, A355; micro serial dilution (in brackets), about 18 hours, 30° C. or 37° C.; penicillinase-producing strain; read-out: minimal inhibitory concentration (MIC)
Description: Two drops of a stock solution of the test compound (antibiotic) in a known concentration were brought into the first hole of a test plate with 9 numbered holes with a sterile Pasteur pipette. After rinsing this pipette three times with a physiological NaCl-solution, two drops of a stock solution of the test organism in a culture medium were brought in all the holes except for hole 8. In the first hole, the solution of the tested compound had been half diluted, then by stirring the liquid in the first hole and adding two drops of this mixture to the second hole and so on until hole 8, dilutions of the test compound solution were obtained in geometrical progression. The hole 9 contained no antibiotic and served for checking the growth of the testogranism in a blank medium. The test plate was incubated at 30° C. or 37° C. for about 18 hours.
^1 Penicillinase-producing strain

[28] = agar serial dilution, 24 hours, 37° C., read-out: minimal inhibitory concentration (MIC)
[29] = agar serial dilution, 24 hours, 37° C.
[30] = 24 h, read-out: minimal inhibitory concentration (MIC), agar serial dilution, 24 hours, 37° C.

SMILES	MIC [1] [µg/mL]	MIC [2] [µg/mL]	MIC [4] [µg/mL]	MIC [5] [µg/mL]	MIC [6] [µg/mL]	MIC [7] [µg/mL]	MIC [8] [µg/mL]	MIC [10] [µg/mL]	MIC [11] [µg/mL]	MIC [12] [µg/mL]	MIC [13] [µg/mL]	MIC [14] [µg/mL]	MIC [15] [µg/mL]	MIC [16] [µg/mL]	MIC [17, 29] [µg/mL]	MIC [20] [µg/mL]	MIC [21] [µg/mL]	MIC [22] [µg/mL]	MIC [23] [µg/mL]	MIC [24] [µg/mL]	also measured
Cc1noc(C(C)C(=O)N[C@@H]2C(=O)N3[C@@H]2SC(C)(C)[C@@H]3C(=O)O)n1 (mixture of isomers) [Example 11H, dl-6[α-methyl-(3-methyl-1,2,4-oxadiazol-5-yl)-acetamido]-penicillanic acid]	3	25	100	> 100	1.5	> 100	≥ 100	6	0.06	> 100	0.25	> 100	0.25	> 100	12.5	12.5	6	0.5	3.7	> 100	MIC [3, 28]: 6 µg/mL; MIC [9]: 0.25 µg/mL; MIC [18, 28]: > 100 µg/mL; MIC [19, 29]: 50 µg/mL
CC(=O)OCC1=C(C(=O)O)N2C(=O)[C@@H](NC(=O)C(C)c3nc(C)no3)[C@H]2SC1 (mixture of isomers) [Example 11I, dl-7-[α-methyl-(3-methyl-1,2,4-oxadiazol-5-yl)-acetamido]-cephalosporanic acid]	1.5	12.5	25	> 100	1.5	6	50	1.5	0.12	> 100	1	> 100	6	25	6	3	75	0.25	> 125	> 100	MIC [3, 30]: 12.5 µg/mL; MIC [25]: 1.2 µg/mL; MIC [26]: 1.2 µg/mL; MIC [18, 30]: 12.5 µg/mL; MIC ([19]; 24 h): 12.5 µg/mL; MIC [27]: 1.2 µg/mL
CCc1noc(C(C)C(=O)N[C@@H]2C(=O)N3C(C(=O)O)=C(COC(C)=O)CS[C@H]23)n1 (mixture of isomers) [Example 11K, dl-7-[α-methyl-(3-ethyl-1,2,4-oxadiazol-5-yl)-acetamido]-cephalosporanic acid]	1	25	> 100	> 100	1.5	6	> 100	1.5	0.25	> 100	1.5	> 100	12.5	> 100		1.5	100	0.06	125	> 100	MIC [3, 30]: 12.5 µg/mL; MIC [9]: 1 µg/mL; MIC [25]: 1.2 µg/mL; MIC [26]: 0.9 µg/mL; MIC [17]: 12.5 µg/mL; MIC [18, 28]: > 100 µg/mL; MIC [19, 29]: 100 µg/mL; MIC [27]: 0.9 µg/mL
CC1=C(C(=O)O)N2C(=O)[C@@H](NC(=O)Cc3nc(-c4c(Cl)cccc4Cl)no3)[C@H]2SC1 [Example 11E, 7-{[3-(2,6-dichlorophenyl)-1,2,4-oxadiazol-5-yl]-acetamido}desacetoxycephalosporanic acid]	1 (≈ 2.13 µM)	> 100	> 100	> 100	25 (≈ 53.3 µM)	100 (≈ 213 µM)	> 100	0.75 (≈ 1.6 µM)	1 (≈ 2.13 µM)	> 100	0.5 (≈ 1.07 µM)	> 100	50 (≈ 107 µM)	> 100	> 100	0.75 (≈ 1.6 µM)	12.5 (≈ 26.6 µM)	0.25 (≈ 0.533 µM)	125 (≈ 266 µM)	> 100	MIC [3, 28]: > 100 µg/mL; MIC [25]: 3.7 µg/mL (≈ 7.88 µM); MIC [26]: 0.25 µg/mL (≈ 0.533 µM); MIC [18, 28]: > 100 µg/mL; MIC [19, 29]: > 100 µg/mL; MIC [27]: 0.25 µg/mL (≈ 0.533 µM)
CCc1noc(CC(=O)N[C@@H]2C(=O)N3C(C(=O)O)=C(COC(C)=O)CS[C@H]23)n1 [Example 11L, 7-[(3-ethyl-1,2,4-oxadiazol-5-yl)-acetamido]-cephalosporanic acid]	1 (≈ 2.44 µM)	3 (≈ 7.31 µM)	6 (≈ 14.6 µM)	> 100	2 (≈ 4.87 µM)	1.5 (≈ 3.65 µM)	6 (≈ 14.6 µM)	1 (≈ 2.44 µM)	0.12 (≈ 0.292 µM)	> 100	0.25 (≈ 0.609 µM)	> 100	6 (≈ 14.6 µM)	25 (≈ 60.9 µM)	1 (≈ 2.44 µM)	1 (≈ 2.44 µM)	50 (≈ 122 µM)	0.25 (≈ 0.609 µM)	≥ 125	> 100	MIC [3, 28]: 3 µg/mL (≈ 7.31 µM); MIC [9]: 1 µg/mL (≈ 2.44 µM); MIC [18, 28]: 50 µg/mL (≈ 122 µM); MIC [19, 29]: 3 µg/mL (≈ 7.31 µM)
CCc1noc(C(C)C(=O)N[C@@H]2C(=O)N3[C@@H]2SC(C)(C)[C@@H]3C(=O)O)n1 (stereo partly drawn) [Example 11M, sodium 6-[α-methyl-(3-ethyl-1,2,4-oxadiazol-5-yl)-acetamido]-penicillanate H2 O]	6	50	> 100	> 100	1	> 100	> 100	6	0.06	> 100	0.12	> 100	0.5	> 100	3	12.5	6	0.5	3.7	> 100	MIC [3, 28]: 25 µg/mL; MIC [9]: 0.5 µg/mL; MIC [18, 28]: > 100 µg/mL; MIC [19, 29]: 50 µg/mL
